Laboratory results published in patent US9200269B2, “β-glucuronidase inhibitor” (priority 2007, dated 2015).

Legend:
[1] = target: T1, β-glucuronidase Type VII-A derived from Escherichia coli (Escherichia coli, UniProt P05804); assay: Inhibition of β-glucuronidase activity (PNPG substrate, absorbance at 400 nm); type: biochemical; conditions: 1.6 units/mL enzyme, 37° C., 2 hours, pH 6.8; for Inhibition rate (%) Concentration 0.001%: 0.001 wt % in reaction solution; for inhibition at 0.01 wt % / Inhibition rate (%) Concentration 0.01%: 0.01 wt % in reaction solution; for inhibition at 0.01 wt %: read-out: Inhibition rate (%) Concentration 0.01%; for inhibition at 0.1 wt % / Inhibition rate (%) Concentration 0.1%: 0.1 wt % in reaction solution; for inhibition at 0.1 wt %: read-out: Inhibition rate (%) Concentration 0.1%
T1 construct: purchased Sigma-Aldrich Corporation
Procedure: 100 μL of a 2 mM PNPG aqueous solution, 40 μL of a 0.5 M phosphate buffer (pH 6.8), 38 μL of ion exchanged water and 2 μL of a 10 or 1 wt % dipropylene glycol (DPG) solution of various compounds or plant extracts were mixed in a bottle γ-ray sterilized in advance, and subsequently 20 μL of a β-glucuronidase aqueous solution adjusted to 16 units/mL was added, in order to allow the enzyme to react in a thermostat bath at 37° C. for 2 hours. Further, in the case of some of compounds, in addition to the above steps, the same experiment was performed using a 0.1 wt % DPG solution as well. As a result, the concentrations of the test compounds and plant extracts in the reaction solution were adjusted to 0.1, 0.01 and 0.001 wt %, respectively. Further, a product prepared by adding DPG in place of the above-mentioned compounds and plant extracts was used as a control, and a product prepared by adding ion exchanged water in place of an enzyme solution was used as a blank for each sample and control, and the respective products were allowed to react for 2 hours in the same manner. It should be noted that the plant extract sample was used as a solvent extract.
The above-mentioned reaction solution was diluted with a 0.2 M glycine buffer (pH 10.4) and measured for its absorbance at a wavelength of 400 nm. The relative activity inhibition rate of a β-glucuronidase was determined by using the obtained measurement value in accordance with the following equation. Absorbance change of control=Absorbance of control−Absorbance of blank for each control Absorbance change of sample=Absorbance of sample−Absorbance of blank for each sample Activity inhibition rate (%)=[(Absorbance change of control−Absorbance change of sample)/Absorbance change of control]×100

[2] = Urine catching pad urine addition test, urine odor intensity; set-up: species or system human; conditions: six-level score 0 to 5, average of five panelists; inhibitor 1 wt. % of water-absorbent polymer; 30 g human urine, 30° C.
Procedure: Sensory evaluation of odor was performed by six panelists, the evaluation was based on a six-level odor intensity indication method in which the odor intensity was indicated with an evaluation score of 0 to 5. In the evaluation score, “0” indicates no odor, “1” indicates odor which can be slightly perceived (detection threshold), “2” indicates odor which can be perceived to be urine odor but is weak (perception threshold), “3” indicates odor which can be easily perceived to be urine odor, “4” indicates strong urine odor, and “5” indicates extreme urine odor. The odor intensity was determined at an interval of 0.5.
Specifically, the urine catching pad was prepared by replacing only a water-absorbent polymer in the commercially available urine catching pad “Relief urine catching pad safe absorption (Anshin-Kyusyu)” (manufactured by Kao Corporation) with a water-absorbent polymer wherein the β-glucuronidase inhibitor of the present invention was added. The added amount of the inhibitor to the water-absorbent polymer was 1 wt. % with respect to the water-absorbent polymer, and was equivalent to 1.5 g/m^2 with respect to the urine catching pad.
A urine addition test was performed by using test pieces having dimensions of 19 cm by 7 cm being cut out from the urine catching pad, and using a test piece containing no β-glucuronidase inhibitor as a blank. The test was performed as follows: 30 g of human urine (a mixture of urine from five humans) were added to these test pieces cut out from the urine catching pad, and the urine odor intensity after 1 hour, after 24 hours, and after 48 hours under preservation at 30° C. was evaluated by five panelists based on the six-level odor intensity indication method as described in the item (2) of Reference Example 2.

T1 sequence (P05804 whole entry): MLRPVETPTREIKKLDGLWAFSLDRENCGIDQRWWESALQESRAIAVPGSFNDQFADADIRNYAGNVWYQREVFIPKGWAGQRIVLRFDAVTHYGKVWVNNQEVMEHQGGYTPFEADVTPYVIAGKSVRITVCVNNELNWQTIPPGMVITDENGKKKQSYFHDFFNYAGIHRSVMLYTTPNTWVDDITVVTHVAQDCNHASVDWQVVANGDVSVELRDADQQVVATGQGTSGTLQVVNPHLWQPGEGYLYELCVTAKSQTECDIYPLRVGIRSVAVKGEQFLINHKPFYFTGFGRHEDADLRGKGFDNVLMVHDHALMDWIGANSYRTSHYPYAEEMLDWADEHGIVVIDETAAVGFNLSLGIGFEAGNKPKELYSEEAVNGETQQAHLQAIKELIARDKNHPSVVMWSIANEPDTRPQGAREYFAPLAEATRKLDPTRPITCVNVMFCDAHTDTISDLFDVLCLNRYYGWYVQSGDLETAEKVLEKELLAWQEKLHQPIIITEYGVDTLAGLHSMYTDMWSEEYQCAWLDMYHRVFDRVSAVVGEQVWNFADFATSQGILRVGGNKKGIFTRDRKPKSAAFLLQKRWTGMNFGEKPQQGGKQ

Compound	inhibition at 0.01 wt % [1] [%]	inhibition at 0.1 wt % [1] [%]	Inhibition rate (%) Concentration 0.01% [1] [%]	Inhibition rate (%) Concentration 0.1% [1] [%]	other results
O=C(O)[C@@H](O)[C@H]1OC(=O)[C@H](O)[C@H]1O [D-Glucaro-1,4-lactone, D-glucaro-1,4-lactone, reference compound]	80.4	98	–	–	Inhibition rate (%) Concentration 0.001% [1]: 31.1%; Urine odor intensity After 1 hour [2]: 1.6; Urine odor intensity After 24 hours [2]: 1.9; Urine odor intensity After 48 hours [2]: 3.3
COC1(C)CCCCCCCCCCC1 [Madrox, 1-methyl-1-methoxycyclododecane]	60.9	92.4	–	–	–
CCCCCCC#CC(=O)OC [Methyl-2-nonynoate, methyl-2-nonynoate]	95.3	98.2	–	–	–
CC(C)=CCCC1=CCC(C=O)CC1 (centres unmarked) [Myrac aldehyde, 4-(4-methyl-3-pentenyl)-3-cyclohexene-1-carboxyaldehyde]	–	–	49.7	63.7	–
CC(C)=CCC/C(C)=C\CO [Nerol, nerol]	44	85.7	–	–	–
C=C(C)[C@@H]1CCC2=CC(=O)C[C@@H](C)[C@]2(C)C1 [Nootkatone, nootkatone]	80.8	95.2	–	–	–
COC1CCCCCCCCCCC1 [Palisandin, 1-methoxycyclododecane]	53.3	85	–	–	–
O=CCc1ccccc1 [Phenylacetaldehyde, phenylacetaldehyde]	31.9	72.2	–	–	–
CC(C)CCOCCc1ccccc1 [Phenylethyl isoamyl ether, phenylethyl isoamyl ether]	60.8	88.8	–	–	–
CC(CCO)CCc1ccccc1 (centres unmarked) [Phenylhexanol, 3-methyl-5-phenyl-1-pentanol]	52.1	61.2	–	–	–
CC(=O)OC(C)(C)C1CC=C(C)CC1 (centres unmarked) [Terpinyl acetate, terpinyl acetate]	–	–	65.5	94.7	–
COc1cc(C=O)ccc1O [Vanillin, vanillin]	49.5	82.1	–	–	–
CC/C=C\CCOC(=O)c1ccccc1 [cis-3-Hexenyl benzoate, cis-3-hexenyl benzoate]	45.1	80.6	–	–	–
CC/C=C\CC1=C(C)CCC1=O [cis-Jasmone, cis-jasmone]	–	–	77.2	99.2	Inhibition rate (%) Concentration 0.001% [1]: 24.8%
COc1ccc(C)cc1 [p-Cresyl methyl ether, p-cresyl methyl ether]	24	85.9	–	–	–
C/C=C\C(=O)C1C(C)=CCCC1(C)C (stereo not drawn) [α-Damascone, α-damascone]	–	–	42.6	89.9	–
CC(=O)/C=C/C1C(C)=CCCC1(C)C (stereo not drawn) [α-Ionone, α-ionone]	–	–	43.3	91.8	–
CCC(=O)/C=C/C1C(C)=CCCC1(C)C (stereo not drawn) [α-Methylionone, α-methylionone]	–	–	57.5	91.1	–
C/C=C/C(=O)C1=C(C)CCCC1(C)C [β-Damascone, β-damascone]	–	–	39.5	77.3	–
CC(=O)/C=C/C1=C(C)CCCC1(C)C [β-Ionone, β-ionone]	–	–	40.2	81.1	–
CC(=O)/C(C)=C/C1C(C)=CCCC1(C)C (centres unmarked) [γ-Methylionone, γ-methylionone]	–	–	84.1	98.5	Inhibition rate (%) Concentration 0.001% [1]: 22.0%
vetiverol	–	–	88.0	97.1	–
